Tests used:
Format in all cases: in vivo
[1] = system: Thrips palmi; assay: Example 7: aubergines against Thrips palmi; details: for Efficacy (% Abbott) 7 d: 7 d after the second application, 20 leaves, Imidacloprid (100 SL) 0.0151 % a.s., (I-4) (+ 0.2% rapeseed oil methyl ester) 0.0096 % a.s.; for Efficacy (% Abbott) 13 d: 13 d after the second application; for Efficacy (% Abbott) 13 d / Efficacy (% Abbott) 21 d: Imidacloprid 0.0151 % a.s., (I-4) 0.0096 % a.s.; for Efficacy (% Abbott) 21 d: 21 d after the second application
Procedure: Plots approximately 16.5 m^2 in size which are planted with aubergines are treated, in three replications, against Thrips palmi. Here, the active substance Example (I-4) and the commercial standard Imidacloprid (100 SL) is applied at the specified application rates, using a knapsack sprayer which is operated with compressed air. The water application rate is 750 l/ha. In the case of Example (I-4), 0.2% a.s. rapeseed oil methyl ester (500 EW) is added to the spray mixture. Three applications are carried out at intervals of 7 and 14 days, respectively.
The destruction rate in percent is determined on in each case 20 leaves. The following results are obtained 7, 13 and 21 days after the second application: […]

[2] = system: Dalbulus maidis; assay: Example 13: dwarf beans against Dalbulus maidis; details: nymphs on leaves, all 96 g a.s./ha; for Efficacy (% Abbott) 7 d: 7 d after second treatment, 240 SC + 0.1% rapeseed oil methyl ester, Imidacloprid 200 SL; for Efficacy (% Abbott) 11 d: 11 d after second treatment
Procedure: Plots approx. 10 m^2 in size which are planted with dwarf beans cv. “Carioquinha” are treated, in three replications, against Dalbulus maidis. The application is carried out with a knapsack sprayer which is operated with pressurized air. Here, the active substances Example (I-4) (240 SC) and Example (I-9) (240 SC), in a tank mix with 0.1% a.s. rapeseed oil methyl ester (500 EW) and the commercial standard Imidacloprid (200 SL), are applied at the specified application rates. Two applications are carried out at an interval of 7 days, using a water application rate of 300 l/ha.
The test is evaluated 7 and 11 days after the second treatment by scoring the destruction rate of the animals (nymphs) on the leaves.

[3] = system: Idioscopus clypealis; assay: Example 14: mango tree against Idioscopus clypealis; details: nymphs on infructescences; for Efficacy (% Abbott) 7 days after treatment 4 / Efficacy (% Abbott) 7 days after treatment 5: Imidacloprid 0.00025 %, (I-4) 0.0016 %, Pymetrozine 0.002 %; for Efficacy (% Abbott) 7 days after treatment 3: Imidacloprid (100 SL) 0.00025 %, (I-4) (240 SC + 0.2% rapeseed oil methyl ester) 0.0016 %, Pymetrozine (WP 25) 0.002 %
Procedure: A mango tree which is approximately 14 years old is treated, in three replications, against Idioscopus clypealis. The application is carried out with a high-pressure sprayer. Here, the active substance Example (I-4) (240 SC), in a tank mix with 0.2% a.s. rapeseed oil methyl ester (500 EW) and the commercial standards Imidacloprid (100 SL) and Pymetrozine (WP 25), is tested at the specified application rates. The amount of spray mixture is 10 l/tree. Five treatments are carried out at intervals of 7, 14, 21 and 28 days.
The test is evaluated in each case 7 days after treatments 3 to 5 by scoring the destruction rate of the nymphs on the infructescences.

[4] = system: Pegomya spp.; assay: Example 17: winter wheat against Pegomya spp.; details: 3 days after the last of two treatments (interval 7 days), larvae, Thiacloprid (240 OD) 72, (I-4) (240 SC + 0.2% rapeseed oil methyl ester) 96 g a.s./ha
Procedure: Plots approx. 25 m^2 in size which are planted with winter wheat cv. “Capfern” are treated, in four replications, against Pegomya spp. The application is carried out with a knapsack sprayer which is operated with pressurized air. Here, the active substance Example (I-4) (240 SC), in a tank mix with 0.2% a.s. rapeseed oil methyl ester (500 EW) and the commercial standard Thiacloprid (240 OD), is tested at the specified application rates. Two applications are carried out at an interval of 7 days. The water application rate is 350 l/ha.
(§1) The test is evaluated 3 days after the last treatment by scoring the destruction rate of the larvae on the plants.

[5] = system: Lema melanopa; assay: Example 25: winter wheat against Lema melanopa; details: 3 days after the last of two treatments (interval 7 days), larvae, Calypso (240 OD) 72, (I-4) (240 SC + 0.2% rapeseed oil methyl ester) 96 g a.s./ha
Procedure: Plots approx. 25 m^2 in size which are planted with winter wheat cv. “Capfem” are treated, in four replications, against Lema melanopa. The application is carried out with a knapsack sprayer which is operated with pressurized air. Here, the active substance Example (I-4) (240 SC), in a tank mix together with 0.2% a.s. rapeseed oil methyl ester (500 EW) and the commercial standard Calypso (240 OD), is applied at the specified application rates. Two applications are carried out at an interval of 7 days, with a water application rate of 350 l/ha.
as §1

[6] = system: Carpocapsa pomonella; assay: Example 30: apple trees against Carpocapsa pomonella, fruit damage; details: 14 days after treatment 2, Imidacloprid (200 SC) 0.015 %, (I-4) (150 OD) 0.015 %
Procedure: Approx. 16-year-old apple trees cv. “Golden Delicious” are treated, in four replications, against Carpocapsa pomonella. The application is carried out with a spray diffuser. Here, the active substance Example (I-4) (150 OD) is applied in comparison with Imidacloprid (200 SC) at the specified application rates. Two applications are carried out at an interval of 16 days, with a water application rate of 1000 l/ha.
The test is evaluated 14 days after treatment 2 by scoring the fruit damage with the aid of the Abbott formula.

[7] = system: flea beetles (Phyllotreta sp.); assay: Example 24: aubergines against flea beetles; details: 7 d after the last of four treatments, larvae, Imidacloprid (100 SL) 100, (I-4) (100 OD) 70, Profenofos (500 EC) 500 g a.s./ha
Procedure: Plots approx. 12 m^2 in size which are planted with aubergines cv. “DLP” are treated, in three replications, against flea beetles (Phyllotreta sp.). The application is carried out with a knapsack sprayer which is operated with pressurized air. Here, the active substance Example (I-4) (100 OD) and the commercial standards Imidacloprid (100 SL) and Profenofos (500 EC) are applied at the specified application rates. Four applications are carried out at intervals of 7, 8 and 10 days, with a water application rate of 750 l/ha.
The test is evaluated 7 days after the last treatment by scoring the destruction rate of the larvae on the plants.

[8] = system: Empoasca biguttula; assay: Example 16: aubergines against Empoasca biguttula; details: for Efficacy (% Abott) 2 d: 2 d after first treatment, nymphs, Imidacloprid (SL 100) 30, (I-4) (150 OD) 50, Profenofos (500 EC) 500 g a.s./ha, two applications, interval 7 days; for Efficacy (% Abott) 6 d: 6 d after first treatment; for Efficacy (% Abott) 6 d / Efficacy (% Abott) 13 d: Imidacloprid 30, (I-4) 50, Profenofos 500 g a.s./ha; for Efficacy (% Abott) 13 d: 13 d after first treatment
Procedure: Plots 10 m^2 in size which are planted with aubergines are treated, in three replications, against Empoasca biguttula. The application is carried out with a knapsack sprayer which is operated with pressurized air. Here, the active substance Example (I-4) (150 OD) is tested against the commercial standards Imidacloprid (SL 100) and Profenofos (500 EC) at the specified application rates. Two applications are carried out at an interval of 7 days. The water application rate is 750 l/ha.
The test is evaluated 2, 6 and 13 days after the first treatment by scoring the destruction rates of the animals (nymphs) on the plants.

Structure (SMILES)	Efficacy (% Abbott) 7 d [1]	Efficacy (% Abbott) 13 d [1]	Efficacy (% Abbott) 21 d [1]	Efficacy (% Abbott) 7 d [2]	Efficacy (% Abbott) 11 d [2]	Efficacy (% Abbott) 7 days after treatment 4 [3]	Efficacy (% Abbott) 7 days after treatment 5 [3]	Efficacy (% Abbott) 7 days after treatment 3 [3]	Efficacy (% Abbott) 10 d [4]	Efficacy (% Abbott) 10 d [5]	Efficacy (% Abbott) [6]	Efficacy (% Abbott) 7 d [7]	Efficacy (% Abott) 2 d [8]	Efficacy (% Abott) 6 d [8]	Efficacy (% Abott) 13 d [8]
CCOC(=O)OC1=C(c2cc(C)ccc2C)C(=O)N[C@]12CC[C@@H](OC)CC2 [Example (I-4)]	84 % Abbott	88 % Abbott	78 % Abbott	73 % Abbott	69 % Abbott	98.1 % Abbott	99.4 % Abbott	54.7 % Abbott	100 % Abbott	82.1 % Abbott	73.7 % Abbott	89 % Abbott	52.4 % Abott	56.0 % Abott	66.7 % Abott
O=[N+]([O-])NC1=NCCN1Cc1ccc(Cl)nc1 [Imidacloprid]	72 % Abbott	68 % Abbott	24 % Abbott	82 % Abbott	74 % Abbott	82.2 % Abbott	86.4 % Abbott	69.1 % Abbott			26.3 % Abbott	98 % Abbott	38.1 % Abott	71.6 % Abott	58.7 % Abott
